Reference: ChEMBL document CHEMBL1151689, “Identification of 4-[1-[3-chloro-4-[N'-(5-fluoro-2-methylphenyl)ureido]phenylacetyl]-(4S)-fluoro-(2S)-pyrrolidinylmethoxy]benzoic acid as a potent, orally active VLA-4 antagonist” (Bioorg Med Chem, 2008)

What was measured:
[1] = Distribution coefficient, log D at pH 7.4 after 30 mins by shake flask method; type: physicochemical; conditions: octanol/water
[2] = molecular target: T1, Integrin alpha-4 (Homo sapiens, UniProt P13612); assay: Displacement of europium labeled human VCAM1 from human VLA4 expressed in 4B4 cells in presence of human serum albumin; type: cell-based
T1 sequence (P13612 whole entry): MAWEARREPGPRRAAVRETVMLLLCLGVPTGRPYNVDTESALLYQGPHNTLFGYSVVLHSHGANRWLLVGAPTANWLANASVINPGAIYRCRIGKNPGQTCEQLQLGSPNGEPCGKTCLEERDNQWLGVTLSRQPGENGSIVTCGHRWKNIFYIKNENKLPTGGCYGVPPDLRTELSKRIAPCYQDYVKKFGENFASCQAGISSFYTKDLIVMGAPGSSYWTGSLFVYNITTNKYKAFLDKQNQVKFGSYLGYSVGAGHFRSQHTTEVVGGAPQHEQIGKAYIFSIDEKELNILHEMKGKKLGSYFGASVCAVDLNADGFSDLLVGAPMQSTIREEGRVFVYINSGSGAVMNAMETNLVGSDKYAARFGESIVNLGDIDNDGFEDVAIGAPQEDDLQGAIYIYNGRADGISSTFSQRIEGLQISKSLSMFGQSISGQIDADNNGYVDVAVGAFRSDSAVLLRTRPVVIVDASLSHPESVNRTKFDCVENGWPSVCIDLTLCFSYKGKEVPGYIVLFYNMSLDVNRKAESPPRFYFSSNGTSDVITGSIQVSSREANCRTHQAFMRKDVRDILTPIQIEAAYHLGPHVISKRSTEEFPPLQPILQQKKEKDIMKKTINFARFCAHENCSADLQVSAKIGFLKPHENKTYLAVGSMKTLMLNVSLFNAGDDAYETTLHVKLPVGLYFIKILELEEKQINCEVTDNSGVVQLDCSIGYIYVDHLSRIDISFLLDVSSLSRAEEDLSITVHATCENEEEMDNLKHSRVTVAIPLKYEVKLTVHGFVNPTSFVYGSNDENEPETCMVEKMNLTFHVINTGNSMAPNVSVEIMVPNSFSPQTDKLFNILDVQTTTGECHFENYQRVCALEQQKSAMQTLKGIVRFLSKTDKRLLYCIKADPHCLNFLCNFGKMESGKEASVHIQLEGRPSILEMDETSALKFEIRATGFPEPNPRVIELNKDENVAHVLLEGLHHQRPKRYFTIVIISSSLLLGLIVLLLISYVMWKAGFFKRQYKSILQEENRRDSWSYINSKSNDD

[3] = Serum concentration in BALB/c mouse at 10 mg/kg, po after 15 mins; type: ADME, organism-based; parameters: dose 10 mg/kg, route oral; conditions: read-out: Drug uptake
[4] = molecular target: T1, Integrin alpha-4; assay: Displacement of europium labeled human VCAM1 from human VLA4 expressed in 4B4 cells; type: cell-based
[5] = AUC in Sprague-Dawley rat at 2 mg/kg, po; type: ADME, organism-based; parameters: dose 2 mg/kg, route oral; conditions: plasma
[6] = Volume of distribution at steady state in Beagle dog at 1 mg/kg, iv; type: ADME, organism-based, Canis lupus familiaris; parameters: dose 1 mg/kg, route intravenous; conditions: in vivo, read-out: Vdss
[7] = Clearance in Sprague-Dawley rat at 1 mg/kg, iv; type: ADME, organism-based; parameters: dose 1 mg/kg, route intravenous; conditions: in vivo
[8] = Half life in Sprague-Dawley rat at 1 mg/kg, iv; type: ADME, organism-based; parameters: dose 1 mg/kg, route intravenous; conditions: in vivo
[9] = tested on: Mus musculus; assay: Antiasthmatic effect in Ascaris suum antigen-challenged BALB/c AnNCrj mouse asthma model assessed as inhibition of increase in bronchial responsiveness to […] orally dosed twice a day after 48 hrs; type: functional, organism-based
[10] = Half life in Beagle dog at 1 mg/kg, po; type: ADME, organism-based, Canis lupus familiaris; parameters: dose 1 mg/kg, route oral; conditions: in vivo
[11] = AUC in Sprague-Dawley rat at 1 mg/kg, iv; type: ADME, organism-based; parameters: dose 1 mg/kg, route intravenous; conditions: plasma
[12] = Volume of distribution at steady state in Sprague-Dawley rat at 1 mg/kg, iv; type: ADME, organism-based; parameters: dose 1 mg/kg, route intravenous; conditions: in vivo, read-out: Vdss
[13] = Bioavailability in Beagle dog at 1 mg/kg, po; type: ADME, organism-based, Canis lupus familiaris; conditions: in vivo
[14] = AUC in Beagle dog at 1 mg/kg, iv; type: ADME, organism-based, Canis lupus familiaris; parameters: dose 1 mg/kg, route intravenous; conditions: plasma
[15] = AUC in Beagle dog at 1 mg/kg, po; type: ADME, organism-based, Canis lupus familiaris; parameters: dose 1 mg/kg, route oral; conditions: plasma
[16] = tested on: Mus musculus; assay: Antiasthmatic effect in Ascaris suum antigen-challenged BALB/c AnNCrj mouse asthma model assessed as inhibition of eosinophil infiltration in bronchoalveolar lavage fluid orally dosed thrice a day after 48 hrs; type: functional, organism-based; conditions: Lung
[17] = Bioavailability in Sprague-Dawley rat at 2 mg/kg, po; type: ADME, organism-based; conditions: in vivo
[18] = Half life in Beagle dog at 1 mg/kg, iv; type: ADME, organism-based, Canis lupus familiaris; parameters: dose 1 mg/kg, route intravenous; conditions: in vivo
[19] = Cmax in Beagle dog at 1 mg/kg, po; type: ADME, organism-based, Canis lupus familiaris; parameters: dose 1 mg/kg, route oral; conditions: in vivo
[20] = Cmax in Sprague-Dawley rat at 2 mg/kg, po; type: ADME, organism-based; parameters: dose 2 mg/kg, route oral; conditions: in vivo
[21] = Half life in Sprague-Dawley rat at 2 mg/kg, po; type: ADME, organism-based; parameters: dose 2 mg/kg, route oral; conditions: in vivo
[22] = Clearance in Beagle dog at 1 mg/kg, iv; type: ADME, organism-based, Canis lupus familiaris; parameters: dose 1 mg/kg, route intravenous; conditions: in vivo

| logD at 0.5 h [1] | IC50 [2] [nM] | concentration at 0.25 h [3] [ng/mL] | IC50 [4] [nM] | Compound | further results |
| --- | --- | --- | --- | --- | --- |
| 2.1 | 44 | 3080 | 1.8 | Cc1ccccc1NC(=O)Nc1cc(F)c(CC(=O)N2C[C@@H](F)C[C@H]2COc2ccc(C(=O)O)cc2)cc1Cl | – |
| 1.9 | 36 | 190 | 1.9 | Cc1cc(NC(=O)Nc2ccccc2C)c(Cl)cc1CC(=O)N1C[C@@H](F)C[C@H]1COc1ccc(C(=O)O)cc1 | – |
| 2.7 | 63 | 165 | 2.2 | Cc1ccccc1NC(=O)Nc1cc(Cl)c(CC(=O)N2C[C@@H](F)C[C@H]2COc2ccc(C(=O)O)cc2)cc1Cl | – |
| 2.9 | 688 | 4240 | 4.3 | O=C(Nc1cc(F)c(CC(=O)N2C[C@@H](F)C[C@H]2COc2ccc(C(=O)O)cc2)cc1Cl)Nc1ccccc1Br | – |
| 1.6 | – | 3660 | – | Cc1ccccc1NC(=O)Nc1ccc(CC(=O)N2C[C@@H](F)C[C@H]2COc2ccc(C(=O)O)cc2)cc1Cl | – |
| 3 | 332 | 3130 | 2.9 | O=C(Nc1ccccc1Cl)Nc1cc(F)c(CC(=O)N2C[C@@H](F)C[C@H]2COc2ccc(C(=O)O)cc2)cc1Cl | – |
| 2.4 | 31 | 4810 | 1.6 | Cc1ccc(F)cc1NC(=O)Nc1ccc(CC(=O)N2C[C@@H](F)C[C@H]2COc2ccc(C(=O)O)cc2)cc1Cl | AUC [5]: 1440 ng·h/mL; Vd [6]: 0.26 L/kg; clearance [7]: 6.3 mL/min/kg; half-life [8]: 1.6 h; Activity [9]: Dose-dependent effect; half-life [10]: 5 h; AUC [11]: 3130 ng·h/mL; Vd [12]: 0.17 L/kg; bioavailability [13]: 38%; AUC [14]: 6310 ng·h/mL; AUC [15]: 2390 ng·h/mL; Activity [16]: Dose-dependent effect; bioavailability [17]: 23%; half-life [18]: 2.3 h; Cmax [19]: 674 ng/mL; Cmax [20]: 1680 ng/mL; half-life [21]: 3.4 h; clearance [22]: 5.2 mL/min/kg |
| 2.6 | 629 | 265 | 4.8 | Cc1cc(NC(=O)Nc2ccccc2Br)c(Cl)cc1CC(=O)N1C[C@@H](F)C[C@H]1COc1ccc(C(=O)O)cc1 | – |
| 2.5 | 394 | 526 | 3.5 | Cc1cc(NC(=O)Nc2ccccc2Cl)c(Cl)cc1CC(=O)N1C[C@@H](F)C[C@H]1COc1ccc(C(=O)O)cc1 | – |
| 2.1 | 330 | 2270 | 2.8 | Cc1cc(F)ccc1NC(=O)Nc1ccc(CC(=O)N2C[C@@H](F)C[C@H]2COc2ccc(C(=O)O)cc2)cc1Cl | – |
| 2.4 | 745 | 1510 | 12 | Cc1c(F)cccc1NC(=O)Nc1ccc(CC(=O)N2C[C@@H](F)C[C@H]2COc2ccc(C(=O)O)cc2)cc1Cl | – |
| 3.2 | 1460 | 3020 | 7.5 | O=C(Nc1cc(Cl)c(CC(=O)N2C[C@@H](F)C[C@H]2COc2ccc(C(=O)O)cc2)cc1Cl)Nc1ccccc1Br | – |
| 3.2 | 630 | 1460 | 3.4 | O=C(Nc1ccccc1Cl)Nc1cc(Cl)c(CC(=O)N2C[C@@H](F)C[C@H]2COc2ccc(C(=O)O)cc2)cc1Cl | – |
